Activity calls are given as the source filed them. The rule behind the calls is not given here.
Assays:
CAKI-1 [1] = assay: Antitumor activity against human Caki1 cells xenografted in BALB/c nu mouse assessed as tumor growth inhibition at 1 mg/kg, po administered 5 times a week for 4 weeks measured after 42 days relative to control; format: functional; details: CAKI-1, po, read-out: GI
[2] = Up regulation of ERK1 expression in human Caki1 cells at 250 to 1000 pM after 24 hrs by Western blot analysis; format: functional, cell-based; details: CAKI-1
CAKI-1 [3] = assay: Antitumor activity against human Caki1 cells xenografted BALB/c-nu mouse assessed as down regulation of NNMT in tumor tissue at 1 to 3 mg/kg, po administered 5 times a week for 4 weeks by Western blot analysis; format: functional, organism-based
[4] = Down regulation of phosphorylated p-38 expression in human Caki1 cells at 250 to 1000 pM after 24 hrs by Western blot analysis; format: functional, cell-based; details: CAKI-1
Mus musculus = assay: Toxicity in human Caki1 cells xenografted BALB/c nu mouse assessed as body weight change at 1 mg/kg, po administered 5 times a week for 4 weeks measured every 2 to 3 days; format: organism-based, CAKI-1; details: in vivo

In the case of `COc1cc2c3c(c4ccc(NS(C)(=O)=O)cc4c2cc1OC)CN1CCCC[C@@H]1C3`, the inhibition in vivo at 1 mg/kg (CAKI-1 [1]) is reported as 64.6%, the Activity [2] is reported as “Active” and the Activity (CAKI-1 [3]) is reported as “Active”. The Activity [4] was “Active” and the Activity (Mus musculus) was “Non-toxic”.

— ChEMBL document CHEMBL3621165, “Design, Synthesis, and Biological Activity of Sulfonamide Analogues of Antofine and Cryptopleurine as Potent and Orally Active Antitumor Agents” (J Med Chem, 2015)
